Assays:
C3H/He mice = experiment: New hair growth promoting activity in telogen-phase mice after hair removal (Example 3); type: in vivo; details: 5 wt % in 50% ethanol, once/day 100 μl
From the text: The hair follicle that produces a hair shaft is the only organ known to repeat growth and regression over the entire life. Such regular growth and regression are divided into the anagen phase, the catagen phase, and the telogen phase of a hair cycle. The body hair of the back of C3H/He mice is bound to be in the telogen phase 45 to 95 days after birth, and thus an extremely long telogen phase-bound period is observed compared with common mice, such as C57BL/6N mice, whose hair cycle of the body hair of the back lasts about 21 days in total for the anagen phase, the catagen phase, and the telogen phase. […] Therefore, by using C3H/He mice at 45 to 90 days after birth, new hair growth promoting activity can be evaluated. […]
The application was performed for two groups (test solution-applied group and negative control group (50% ethanol-applied group)), where each group consisted of five mice. On the basis of new hair growth score criteria (Table 15) according to appearance changes in a portion of the applied region that leaves the telogen phase and enters a regeneration phase, the degree of new hair growth in the applied region was quantified (range of 1 to 10 in which new hair growth scores concerning two items are summed) over time on day 0, 4, 5, 6, 7, 10, 11, 12, 13, 14, 17, 18, 19, 20, and 21 after hair removal. […]

hair papilla cells = experiment: Hair papilla cell proliferation test by two-dimensional culture (Example 5); type: cell-based, C57BL/6N mouse; details: final concentration 0.1 wt %, cultured for 3 days; FIG. 18
From the text: Hair papilla cells transmit new hair growth signals to hair matrix cells via signaling substances to activate hair matrix cells, thereby controlling processes of new hair growth and hair elongation. Accordingly, the hair shaft growth promoting activity and the like of test substances can be evaluated from a proliferation rate of hair papilla cells. In this Example, the skin of the whisker region was taken from a C57BL/6N mouse and hair papillae were harvested from isolated whisker follicles under a stereo microscope. Six hair papillae were fixed to the bottom surface of a 60 mm-plastic petri dish (from Sumitomo Bakelite Co., Ltd.), and the primary culture was performed at 37° C. in the presence of 5% CO2 by using a hair papilla cell culture medium in which 2% FCS (fetal calf serum), 0.6% ITT (insulin-transferrin-triiodothyronine mixture), 1% BPE (bovine pituitary extract), and 0.6% Cyp (cyproterone solution) were added to a PCGM base medium. Afterwards, the medium was replaced every 2 to 3 days and subculturing was repeated about every two weeks. In this experiment, hair papilla cells at passage 3 or less were used. […] The number of cells after culturing for 3 days was counted by using a hemocytometer, and proliferation rates in test solution A and the test solution B were calculated relative to 100% for a proliferation rate in the negative control as 100%.

[1] = system: crab-eating macaque (Macaca fascicularis); experiment: New hair growth test in monkey (Example 4); type: in vivo; details: 1 wt % in 50% ethanol, 8 weeks
From the text: A crab-eating macaque (Macaca fascicularis) is a monkey (class: Mammalia, order: Primates, family: Cercopithecidae, genus: Macaca) that has many similarities to humans, such as the morphology of the temporomandibular joint, and is frequently employed as a laboratory animal for morphological studies and medication studies due to its easy breeding and rearing. The crab-eating macaque is known for the replacement of the body hair in a six-month cycle in a year. Among aged female monkeys that had babies repeatedly and aged male monkeys of low social status, individuals with observed symptoms of hair thinning or sparse hair emerge with low frequency. […] In this Example, to an aged crab-eating macaque (19 years of age, male) having sparse body hair of the head, a test solution A in which D-chiro-inositol (from Wako Pure Chemical Industries Ltd.) was dissolved in 50% ethanol at a concentration of 1 wt % and a test solution B in which myo-inositol was dissolved in 50% ethanol at a concentration of 1 wt % were applied every day to about 4 cm^2-sparse hair regions (2 cm×2 cm) in both left and right sides across the median line of the head of the macaque. The application (once/day, 150 μl) was performed over 8 weeks, and 50% ethanol was applied as a negative control. At the end of 8 weeks, hair shafts in the applied regions were cut with hair clippers while leaving 2 to 3 mm from pores toward the outside of the body, and the total number of hair protruded from the pores in the applied regions was counted. A new hair growth rate was calculated as an increase rate in the number of hair at the end of 8 weeks, relative to the number of hair protruded from pores in the same regions before the application at the start of the test as 100%.

[2] = system: hair papilla cell spheroids; experiment: Hair papilla cell proliferation test by three-dimensional culture (Example 6); type: cell-based, C57BL/6N mouse; details: final concentrations 0.05 wt %, 0.1 wt %, and 1 wt %, cultured for 3 days; FIG. 19
Experimental: In this Example, hair papilla cells prepared in a similar manner to Example 5 were seeded in a 96-well U-bottom microplate for cell culture (from Sumitomo Bakelite Co., Ltd.) at 6,000 cells/well and centrifuged with a plate centrifuge at room temperature and at a rotating speed of 1,000 rpm for 1 minute to yield three-dimensional hair papilla cell spheroids. The spheroids were cultured for 3 days by using each of test solutions A1 to A3 that were hair papilla cell culture media to which D-chiro-inositol dissolved in PBS was added at a final concentration of 0.05 wt %, 0.1 wt %, or 1 wt %; test solutions B1 to B3 that were hair papilla cell culture media to which myo-inositol dissolved in PBS was added at a final concentration of 0.05 wt %, 0.1 wt %, or 1 wt %; and a negative control that was a hair papilla cell culture medium to which PBS alone was added. The spheroids after culturing for 3 days were imaged by using a VHX2000 digital microscope (Keyence Corporation), and the area of the spheroids was calculated by using a digital microscope analysis tool. By calculating a spheroid area increase rate in the test solutions A1 to A3 and B1 to B3, relative to an area increase rate in the negative control as 100%, the proliferation of hair papilla cells in conditions further close to in vivo condition was quantified.

## OC1C(O)C(O)C(O)C(O)C1O [D-chiro-inositol]
C3H/He mice; FIG. 17, negative control day 9
  Average timing of new hair growth (new hair growth score reached 1 or more), number of days after hair removal: 4 days
C3H/He mice; day 21 after hair removal, FIG. 16, P<0.05
  New hair growth score vs negative control group: significantly higher
Hair papilla cells
  Hair papilla cell proliferation rate vs negative control: increased significantly
[1]; data not shown
  Hair shaft thickness in applied region vs test solution B and negative control: remarkably thicker
[1]; once/day 150 μl, sparse hair region of head, number of hair before application = 100%
  New hair growth rate: 175.9%
[2]
  Hair papilla cell spheroid area vs negative control: increased significantly

— patent publication US11534377B2, “Hair growth agent” (KOBAYASHI PHARMACEUTICAL CO., LTD., priority 2016, dated 2022)
